{
  "source": "patent US20220202792A1",
  "about": "“METHODS AND COMPOSITIONS FOR TREATING CHRONIC INFLAMMATORY INJURY, METAPLASIA, DYSPLASIA AND CANCERS OF EPITHELIAL TISSUES” (University of Houston System, priority 2019, published 2022)",
  "key": {"[1]": {"test_system": "Barrett's stem cells and Esophageal stem cells", "experiment": "Co-culture of Barrett's stem cell lines and Esophageal stem cells", "format": "cell-based, human", "conditions": "in the presence of Ponatinib"}, "[2]": {"test_system": "Barrett's stem cells (BE stem cells, Krt7+)", "experiment": "High throughput chemical screening and dose response on GFP-labeled stem cells", "format": "cell-based, human"}, "[3]": {"test_system": "Barrett's stem cells and esophageal squamous stem cells xenograft", "experiment": "Mouse xenograft of co-injected esophageal squamous and GFP labeled Barrett's stem cells", "format": "in vivo, mice", "description": "The effect of these chemicals on BE in a xenograft model was further examined. The esophageal squamous stem cells and GFP labeled Barrett's stem cells were mixed and co-injected into the immunodeficient mice. […] Two weeks following the treatment, the xenografts were collected and examined through histology analysis and clonogenic analysis."}, "[4]": {"test_system": "esophageal squamous stem cells (ESO stem cells, Krt5+)", "experiment": "High throughput chemical screening and dose response on GFP-labeled stem cells", "format": "cell-based, human", "conditions": "in the presence of 1 μM Ponatinib"}, "[5]": {"target": "T1, JMJD2A (KDM4A) (Homo sapiens, UniProt O75164)", "T1 sequence (O75164 1-1064)": "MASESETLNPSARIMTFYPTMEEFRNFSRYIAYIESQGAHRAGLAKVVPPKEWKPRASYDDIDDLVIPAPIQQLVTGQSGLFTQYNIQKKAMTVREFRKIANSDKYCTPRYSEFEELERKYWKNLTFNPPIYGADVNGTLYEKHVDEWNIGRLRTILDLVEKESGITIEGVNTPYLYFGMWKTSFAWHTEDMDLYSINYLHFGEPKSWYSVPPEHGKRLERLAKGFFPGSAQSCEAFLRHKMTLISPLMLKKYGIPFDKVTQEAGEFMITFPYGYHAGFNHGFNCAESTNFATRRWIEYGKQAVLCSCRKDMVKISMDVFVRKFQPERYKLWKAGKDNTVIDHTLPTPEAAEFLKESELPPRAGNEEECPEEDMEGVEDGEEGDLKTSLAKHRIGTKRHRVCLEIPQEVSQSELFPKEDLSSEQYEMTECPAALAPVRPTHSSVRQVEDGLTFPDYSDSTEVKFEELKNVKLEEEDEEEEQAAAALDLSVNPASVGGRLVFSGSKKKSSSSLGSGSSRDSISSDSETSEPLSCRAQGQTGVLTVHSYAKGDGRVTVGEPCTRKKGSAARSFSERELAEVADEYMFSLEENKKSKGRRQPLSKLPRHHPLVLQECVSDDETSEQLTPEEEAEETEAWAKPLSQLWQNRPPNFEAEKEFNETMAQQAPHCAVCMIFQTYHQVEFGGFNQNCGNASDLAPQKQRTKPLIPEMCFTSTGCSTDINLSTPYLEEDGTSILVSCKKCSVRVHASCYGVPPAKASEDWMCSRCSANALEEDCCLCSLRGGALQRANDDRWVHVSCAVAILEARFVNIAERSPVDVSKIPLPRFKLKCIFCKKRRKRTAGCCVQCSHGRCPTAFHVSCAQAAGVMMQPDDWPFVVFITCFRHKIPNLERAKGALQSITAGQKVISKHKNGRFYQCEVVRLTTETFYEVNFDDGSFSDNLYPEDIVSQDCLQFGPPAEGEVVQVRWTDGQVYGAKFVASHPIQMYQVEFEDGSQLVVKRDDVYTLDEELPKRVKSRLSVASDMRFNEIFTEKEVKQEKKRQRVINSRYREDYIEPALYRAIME", "conditions": "demethylase activity in vitro; cited from earlier work"}, "[6]": {"test_system": "Barrett's, dysplasia or EAC stem cells", "experiment": "Co-culture of esophageal stem cells with Barrett's, dysplasia or EAC stem cells", "format": "cell-based, human", "conditions": "together with 1 μM Ponatinib", "experimental": "FIG. 6. Patient-matched BE, dysplasia and cancer stem cells (Krt7+, Green) were mixed with Krt5+ (red) ESO cells and co-cultured for five days and then treated with seven selected drugs together with 1 μM Ponatinib.\nBE has been known to be the precursor of the dysplastic and cancerous lesions of EAC. […] Moreover, PCA analysis of Barrett's stem cells derived from 12 patients together with dysplasia, cancer and Esophageal squamous stem cells confirmed that the stem cells of dysplasia and cancer shared very similar gene expression with Barrett's stem cells (FIGS. 4A & B). […] The effects of the eight drug hits in combination with Ponatinib were tested in the cell culture of co-seeding esophageal stem cells and Barrett's, dysplasia or EAC stem cells. […] Given these three entities always co-exist in patients with EAC, our strategies of eradicating all of them could help to eliminate the chance of recurrence of EAC patients drastically."}, "[7]": {"test_system": "aggressive breast cancer model", "conditions": "in vivo; cited from earlier work"}, "[8]": {"test_system": "Barrett's stem cells (GFP) and esophageal squamous stem cells (RFP)", "experiment": "3D air-liquid interface (ALI) co-culture of Barrett's and esophageal stem cells", "format": "cell-based, human", "conditions": "in the presence of Ponatinib", "experimental": "A 3D culture model was generated to mimic Barrett's Esophagus in vitro. The esophageal squamous stem cells and Barrett's stem cells were co-cultured in the transwell insert. Following the creation of air-liquid interface, it was observed that the BE islands located among well-differentiated squamous epithelium that well recapitulated the histology of human BE in the patient. Given the similarity of this artificial model and human pathology, the hits were tested in this system to further validate them. […] The esophageal squamous stem cells were labeled with red fluorescent protein (RFP) while Barrett's stem cells were labeled with green fluorescent protein (GFP). Without the treatment, it was observed that a mixture of GFP and RFP labeled cells in culture."}, "[9]": {"test_system": "dysplasia and cancer stem cells", "experiment": "Mice xenografted with dysplasia and cancer stem cells", "format": "in vivo", "conditions": "with Ponatinib", "description": "FIG. 5C. Schematic of in vivo validation of drug combinations in mice xenografted with dysplasia and cancer stem cells. Following the treatment, the xenografts were processed for histological analysis or clonogenic assays to detect the existence of stem cells."}},
  "data": [
    {"smiles": "Clc1ccc(N/N=C(\\c2ccccc2)c2ccccn2)nc1", "note": "[JIB04]", "values": [
      {"measurement": "effect on Esophageal squamous stem cells in co-culture", "setting": "[1]", "value": "promoting"},
      {"measurement": "lethality to Barrett's stem cells in co-culture", "setting": "[1]; nine Barrett's stem cell lines", "value": "uniform lethality to all Barrett's stem cells"},
      {"measurement": "differential of dose-response curves, BE stem cells versus normal esophageal stem cells", "setting": "[2]; in the background of a fixed concentration of Ponatinib", "value": "~1,000 fold"},
      {"measurement": "lethality towards Barrett's stem cells", "setting": "[2]; screened in the background of 1 μM Ponatinib", "value": "displayed the lethality"},
      {"measurement": "BE stem cells in treated structures (histological analysis)", "setting": "[3]; NSG mice, with Ponatinib", "value": "not detected"},
      {"measurement": "Krt5+ ESO structures in treated samples", "setting": "[3]; NSG mice, with Ponatinib", "value": "visibly more robust"},
      {"measurement": "clonogenic Barrett's stem cells from xenografts", "setting": "[3]; combination with Ponatinib, clonogenic analysis", "value": "lack of clonogenic Barrett's stem cells"},
      {"measurement": "Barrett's structures in xenografts (histology)", "setting": "[3]; combination with Ponatinib, intraperitoneally, two weeks following the treatment", "value": "total loss"},
      {"measurement": "effect on Esophageal stem cells", "setting": "[4]", "value": "without affecting"},
      {"measurement": "IC50", "setting": "[5]", "value": "~0.44", "unit": "µM"},
      {"measurement": "growth of BE, dysplasia and cancer stem cells in co-culture with ESO cells", "setting": "[6]", "value": "most effective"},
      {"measurement": "tumor burden and survival of mice", "setting": "[7]", "value": "reduces tumor burden and prolongs survival"},
      {"measurement": "cross sections of the ALI structures", "setting": "[8]", "value": "intact esophageal squamous epithelium without any existence of Barrett's epithelium"},
      {"measurement": "GFP labeled Barrett's stem cells in 3D ALI co-culture", "setting": "[8]; eight Barrett's stem cell lines", "value": "disappearance"},
      {"measurement": "Dysplastic structures (Krt7+/Ki67+) in xenografts", "setting": "[9]", "value": "diminished"},
      {"measurement": "eradication of precancerous, dysplastic and cancerous stem cells in mouse xenograft models", "setting": "[9]", "value": "eradicate"},
      {"measurement": "stem cells cloned from treated dysplastic structures (rhodamine staining)", "setting": "[9]", "value": "not cloned"}
    ]}
  ]
}
